These results are taken from BindingDB's records for patent WO2025054369 (NICO Therapeutics, 2025).

Molecules are shown by their SMILES. Bounds are passed on as bounds.

The test concerns the target T1, NAD(+) hydrolase SARM1 (Homo sapiens, UniProt Q6SZW1).
T1 sequence (Q6SZW1 whole entry): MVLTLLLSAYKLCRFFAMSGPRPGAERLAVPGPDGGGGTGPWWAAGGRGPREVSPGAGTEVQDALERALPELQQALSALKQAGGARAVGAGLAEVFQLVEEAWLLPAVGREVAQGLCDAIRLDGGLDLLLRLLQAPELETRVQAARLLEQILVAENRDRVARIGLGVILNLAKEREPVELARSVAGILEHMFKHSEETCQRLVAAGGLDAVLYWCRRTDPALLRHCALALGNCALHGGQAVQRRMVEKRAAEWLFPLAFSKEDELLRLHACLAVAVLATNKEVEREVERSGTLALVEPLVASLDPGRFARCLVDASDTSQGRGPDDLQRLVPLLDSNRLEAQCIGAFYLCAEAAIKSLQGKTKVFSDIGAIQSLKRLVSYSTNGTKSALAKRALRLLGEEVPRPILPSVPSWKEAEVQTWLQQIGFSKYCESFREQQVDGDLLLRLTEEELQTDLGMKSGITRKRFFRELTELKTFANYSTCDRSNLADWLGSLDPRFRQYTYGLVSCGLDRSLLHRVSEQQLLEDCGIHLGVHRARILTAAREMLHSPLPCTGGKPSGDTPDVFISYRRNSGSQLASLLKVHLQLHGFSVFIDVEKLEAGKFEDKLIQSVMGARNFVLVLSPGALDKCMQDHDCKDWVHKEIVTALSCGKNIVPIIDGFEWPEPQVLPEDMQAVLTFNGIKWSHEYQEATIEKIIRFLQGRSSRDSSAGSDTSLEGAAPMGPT
Description: Biochemical Assay of the Compounds. On the procedure: Preparation of full-length SARM1 (FL-SARM1) lysate: HEK293T cells (ATCC: CRL-3216) were grown on 150 mm TC-treated dishes to 80-90% confluency in complete DMEM (DMEM (Thermo Fisher: 11965175) supplemented with 10% HI-FBS (VWR: 10802-772), 1x Pen/Strep (Thermo Fisher: 15140122), 1x NEAA (Thermo Fisher: 1140050), 1x glutamax (Thermo Fisher: 35050061), and 1 mM sodium pyruvate (Thermo Fisher: 11360070)) at 37 °C and 5% CO2. One hour prior to transfection, the media was replaced with fresh, 37 °C complete DMEM (20 mL per one 150 mm dish) supplemented with additional 10mM glucose (Alfa Aesar AAJ60067EQE). Per one 150 mm dish, 30 µg FL-SARM1 (SEQ. ID.1; cloned in-house) plasmid was dissolved in 1 mL DMEM at ambient temperature and were mixed by inverting the tube 8-10 times.90 µL of GenJet™ in vitro DNA transfection reagent (Ver2) was dissolved in 1 mL DMEM at ambient temperature and were mixed by inverting the tube 8-10 times. The plasmid and transfection agent solutions were combined, mixed by 8-10 inversions and incubated for 10 minutes at ambient temperature.2 mL of this transfection mixture was added to each dish containing HEK293T cells as prepared above followed by a gentle mixing of 4-5 horizontal rotations. The dishes were incubated at 37 °C and 5% CO2 for 24 h. The dishes were removed from the incubator, the medium was aspirated and the cells were scraped off using cell scrapers in ice-cold 1x PBS (5 mL/dish, Thermo Fisher Scientific 10010023). The collected cells were centrifuged at 300 g for 5 minutes at 4 °C. The supernatant was aspirated and the pellet was frozen at -80 °C until needed. The cell pellet from 30 dishes was dissolved in 30 mL 1x PBS supplemented with 4 tablets of Complete, Mini EDTA-free protease inhibitor cocktail at 4 °C. This mixture was sonicated on ice for 10 minutes at 50% amplitude with a 1 second on/1 second off interval using a Model 120 sonicator (Thermo Fisher Scientific, FB120110). The lysate was centrifuged at 16000 g for 10 minutes at 4 °C.
A word on the IC50: it is the midpoint of a concentration-inhibition curve. Read a high IC50 as lower potency. As to `CC1CC2CC(C1)N2C(=O)Nc1ccc(Cl)c([C@H]2C[C@H](F)C2)c1` (stereo partly drawn) [WO2025054369, Example 48], the IC50 was < 1000 nM. For `CC1CC2CC(C1)N2C(=O)Nc1cc(F)c(Cl)c([C@H]2CC[C@H]2C#N)c1` (stereo partly drawn) [WO2025054369, Example 35] the value was < 1000 nM; for `CC1CC2CC(C1)N2C(=O)Nc1ccc(Cl)c([C@@H]2CC[C@H]2C(F)F)c1` (stereo partly drawn) [WO2025054369, Example 51], < 1000 nM; for `CC1CC2CC(C1)N2C(=O)Nc1ccc(Cl)c([C@@H]2CC[C@H]2n2ccnn2)c1` (relative stereo) [WO2025054369, Example 27], < 1000 nM. For `CC1CC2CC(C1)N2C(=O)Nc1ccc(C(F)(F)F)c(N2CC(O)C2)c1` (stereo not drawn) [WO2025054369, Example 90] the value was < 1000 nM; for `Cc1nnc(C23CC(C)CC(C2)N3C(=O)Nc2ccc(Cl)c([C@@H]3CC[C@@H]3C#N)c2)o1` (stereo partly drawn) [WO2025054369, Example 3], < 1000 nM; for `Cc1ccc(NC(=O)N2C3CCCC2C3)cc1CC1CC1` [WO2025054369, Example 13], 5500 nM. Next, `Cc1ccc(NC(=O)N2C3CCCC2C3)cc1C1CN(C)C1` [WO2025054369, Example 15]: 5500 nM; `CC1CC2CC(C1)N2C(=O)Nc1ccc(Cl)c([C@H]2CCC[C@H]2C#N)c1` (stereo partly drawn) [WO2025054369, Example 61]: < 1000 nM; `N#C[C@H]1CC[C@H]1c1cc(NC(=O)N2C3CC2CC(C(F)(F)F)C3)ccc1Cl` (stereo partly drawn) [WO2025054369, Example 56]: 5500 nM. As to `CC1CC2CC(C1)N2C(=O)Nc1ccc(Cl)c([C@H]2CC[C@H]2C#N)c1` (stereo partly drawn) [WO2025054369, Example 10], the IC50 is < 1000 nM. For `Cc1ccc(NC(=O)CC2CCC2)cc1C1CCC1` [WO2025054369, Example 11] the value was > 10000 nM; for `Cc1noc(C23CC(C)CC(C2)N3C(=O)Nc2ccc(Cl)c(C3CCCC3)c2)n1` (stereo not drawn) [WO2025054369, Example 82], < 1000 nM; for `Cc1nnc([C@@]23C[C@@H](C)C[C@@H](C2)N3C(=O)Nc2ccc(Cl)c(N3CC(O)C3)c2)o1` [WO2025054369, Example 70], < 1000 nM. For `Cc1nnc(C23CC(C)CC(C2)N3C(=O)Nc2ccc(Cl)c([C@H]3CC[C@H]3C#N)c2)o1` (stereo partly drawn) [WO2025054369, Example 4] the value was < 1000 nM; for `CC1CC2CC(C1)N2C(=O)Nc1ccc(Cl)c(C(C)(C)O)c1` (stereo not drawn) [WO2025054369, Example 81], 5500 nM; for `CC1CC2CC(C1)N2C(=O)Nc1ccc(Cl)c(C2CC(=O)C2)c1` (stereo not drawn) [WO2025054369, Example 77], < 1000 nM.

On to `Cc1nnc([C@]23C[C@H](C[C@H](C(F)(F)F)C2)N3C(=O)Nc2ccc(Cl)c(C3CCC3)c2)o1` [WO2025054369, Example 69], for which the IC50 is > 10000 nM.

For the molecule `N#C[C@@H]1CC[C@@H]1c1cc(NC(=O)N2C3CC2CC(C(F)(F)F)C3)ccc1Cl` (stereo partly drawn) [WO2025054369, Example 33], the IC50 was < 1000 nM. `C[C@@H]1C[C@@H]2C[C@H](C1)N2C(=O)Nc1ccc(Cl)c(N2CCCC2=O)c1` [WO2025054369, Example 93] had an IC50 of 5500 nM. In other words, the single-digit micromolar range. Next, `Cc1nnc(C23CC(C)CC(C2)N3C(=O)Nc2ccc(Cl)c([C@@H]3C[C@@H]3C#N)c2)o1` (stereo partly drawn) [WO2025054369, Example 16]: 5500 nM. For the molecule `O=C(Nc1ccc(Cl)c(N2CC(O)C2)c1)N1C2CC1CC(C(F)(F)F)C2` (stereo not drawn) [WO2025054369, Example 89], the IC50 was < 1000 nM. Regarding `CC1CC2CC(C1)N2C(=O)Nc1ccc(Cl)c(C2(F)CCC2)c1` (stereo not drawn) [WO2025054369, Example 19], the IC50 was < 1000 nM.

Take `Cc1noc(C23CC(C)CC(C2)N3C(=O)Nc2ccc(Cl)c(C3CCC3)c2)n1` (stereo not drawn) [WO2025054369, Example 80]: the IC50 was < 1000 nM. For `CC1CC2CC(C1)N2C(=O)Nc1ccc(Cl)c(C2CC(C)(OCCO)C2)c1` (stereo not drawn) [WO2025054369, Example 74] the value was < 1000 nM. For `Cc1ccc(NC(=O)N2C3CCCC2C3)cc1C1CC(=O)N(C)C1` (stereo not drawn) [WO2025054369, Example 14] the value was 5500 nM. For `CC1(O)CC(c2cc(NC(=O)N3C4CC3CC(C(F)(F)F)C4)ccc2CN)C1` (stereo not drawn) [WO2025054369, Example 73] the value was 5500 nM; for `CC1CC2CC(C1)N2C(=O)Nc1ccc(Cl)c(N2CC[C@H]2C#N)c1` (stereo partly drawn) [WO2025054369, Example 72], < 1000 nM. The molecule `CC1CC2CC(C1)N2C(=O)Nc1ccc(Cl)c([C@H]2CC[C@H]2C(F)F)c1` (stereo partly drawn) [WO2025054369, Example 41] gave an IC50 of 5500 nM.

On to `O=C(Nc1ccc(Cl)c([C@H]2C[C@H](O)C2)c1)N1C2CC1CC(C(F)(F)F)C2` (stereo partly drawn) [WO2025054369, Example 42], for which the IC50 is < 1000 nM. Take `Cc1ccc(NC(=O)N2C3CC(C)CC2C3)cc1[C@H]1CC[C@H]1C#N` (stereo partly drawn) [WO2025054369, Example 8]: the IC50 is < 1000 nM. For `CC1CC2CC(C1)N2C(=O)Nc1ccc(Cl)c([C@@H]2CC[C@@H]2n2nccn2)c1` (relative stereo) [WO2025054369, Example 30] the value was < 1000 nM; for `Cc1nnc(C23CC(C)CC(C2)N3C(=O)Nc2ccc(Cl)c([C@H]3C[C@H]3C#N)c2)o1` (stereo partly drawn) [WO2025054369, Example 17], < 1000 nM. For `CC1CC2CC(C1)N2C(=O)Nc1ccc(Cl)c(C2CCC2)c1` (stereo not drawn) [WO2025054369, Example 18] the value was < 1000 nM; for `Cc1nnc(C23CC(C)CC(C2)N3C(=O)Nc2ccc(Cl)c(C3CCC3)c2)o1` (stereo not drawn) [WO2025054369, Example 1], < 1000 nM; for `CC1CC2CC(C1)N2C(=O)Nc1ccc(Cl)c([C@@H]2CCC[C@H]2C#N)c1` (stereo partly drawn) [WO2025054369, Example 63], < 1000 nM. For `CC1CC2CC(C1)N2C(=O)Nc1ccc(Cl)c(C2CCC2=O)c1` (stereo not drawn) [WO2025054369, Example 83] the value was < 1000 nM; for `C[C@]1(O)CC[C@@H](c2cc(NC(=O)N3C4CC3CC(C(F)(F)F)C4)ccc2Cl)C1` (stereo partly drawn) [WO2025054369, Example 66], < 1000 nM. Take `CC1CC2CC(C1)N2C(=O)Nc1ccc(C(F)(F)F)c(C2CCC2)c1` (stereo not drawn) [WO2025054369, Example 75]: the IC50 is < 1000 nM.

Regarding `C[C@@H]1C[C@@H]2C[C@H](C1)N2C(=O)Nc1ccc(Cl)c(N2CC(C#N)C2)c1` [WO2025054369, Example 91], the 50% inhibitory concentration (IC50) was < 1000 nM. For `O=C(Nc1ccc(Cl)c([C@H]2C[C@@H](O)C2)c1)N1C2CC1CC(C(F)(F)F)C2` (stereo partly drawn) [WO2025054369, Example 43], the IC50 is < 1000 nM. In the case of `CC1CC2CC(C1)N2C(=O)Nc1ccc(Cl)c([C@H]2C[C@H](O)C2)c1` (stereo partly drawn) [WO2025054369, Example 36], the IC50 is < 1000 nM. For `Cc1ccc(NC(=O)N2C3CCCC2C3)cc1C1CCC1` [WO2025054369, Example 12] the value was 5500 nM; for `COC(C)(C)c1cc(NC(=O)N2C3CC(C)CC2C3)ccc1Cl` (stereo not drawn) [WO2025054369, Example 79], 5500 nM.

For the molecule `N#C[C@@H]1CC[C@@H]1c1cc(NC(=O)N2C3CC2CC(C(F)(F)F)C3)ccc1C(F)(F)F` (stereo partly drawn) [WO2025054369, Example 53], the concentration for half-maximal inhibition (IC50) is < 1000 nM. For `Cc1ccc(NC(=O)CC2CCC2)cc1C1CC1` [WO2025054369, Example 21] the value was > 10000 nM. For the molecule `Cc1nnc(C23CC(C)CC(C2)N3C(=O)Nc2ccc(C(F)(F)F)c(C3CC(F)(F)C3)c2)o1` (stereo not drawn) [WO2025054369, Example 25], the IC50 was < 1000 nM.

`N#C[C@H]1CC[C@H]1c1cc(NC(=O)N2C3CCC2CC(C(F)(F)F)C3)ccc1Cl` (relative stereo; form 2) [WO2025054369, Example 45] gave an IC50 of 5500 nM.
